Experimental data reported in article PMC6166229 (Journal of Medicinal Chemistry, 2018).
Blank lines part the entries; values can stand above or below the compound they belong to.

Experiments:
[1] = Dog blood pharmacokinetics; format: in vivo; conditions: whole blood, iv, 1 mg/kg
MPS1 = target: T1, MPS1 (Homo sapiens, UniProt P33981); format: biochemical; conditions: 2,2-dimethylazetidine 48 compared with neopentyl-like analogue (47)
T1 sequence (P33981 1-857): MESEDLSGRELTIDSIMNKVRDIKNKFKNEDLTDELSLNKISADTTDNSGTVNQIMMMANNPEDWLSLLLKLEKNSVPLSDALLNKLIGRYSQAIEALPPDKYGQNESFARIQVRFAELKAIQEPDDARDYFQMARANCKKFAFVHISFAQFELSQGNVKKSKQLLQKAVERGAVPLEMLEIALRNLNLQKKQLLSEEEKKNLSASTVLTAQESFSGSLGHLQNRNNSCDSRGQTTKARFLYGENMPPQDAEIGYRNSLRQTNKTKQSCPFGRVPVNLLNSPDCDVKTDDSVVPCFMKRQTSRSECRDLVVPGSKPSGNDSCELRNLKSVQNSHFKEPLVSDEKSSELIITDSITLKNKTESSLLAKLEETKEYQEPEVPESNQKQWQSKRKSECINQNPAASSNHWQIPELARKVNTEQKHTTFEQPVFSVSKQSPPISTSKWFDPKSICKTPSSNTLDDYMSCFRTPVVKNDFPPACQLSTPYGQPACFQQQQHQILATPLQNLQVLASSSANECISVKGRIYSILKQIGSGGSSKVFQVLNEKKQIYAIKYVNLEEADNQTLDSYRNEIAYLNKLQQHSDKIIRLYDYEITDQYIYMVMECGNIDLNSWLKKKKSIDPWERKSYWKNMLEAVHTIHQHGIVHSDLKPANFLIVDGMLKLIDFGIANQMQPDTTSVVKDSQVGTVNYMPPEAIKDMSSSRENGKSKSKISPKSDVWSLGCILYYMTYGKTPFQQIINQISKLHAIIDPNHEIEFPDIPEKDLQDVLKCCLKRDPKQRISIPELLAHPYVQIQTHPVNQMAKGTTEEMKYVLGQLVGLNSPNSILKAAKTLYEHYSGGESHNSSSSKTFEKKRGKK

[2] = Microsomal clearance, human liver microsomes; format: in vitro ADME; conditions: both, pH 7.4, Clint human

clearance [1]: 1.2 mL/min/kg
SMILES: CCOc1cc(-c2nncn2C)ccc1Nc1ncc2cc(C)nc(NCC(C)(C)C)c2n1 [Compound 36, N^2-(2-Ethoxy-4-(4-methyl-4H-1,2,4-triazol-3-yl)phenyl)-6-methyl-N^8-neopentylpyrido[3,4-d]pyrimidine-2,8-diamine]

fold higher IC50 (MPS1): 40 fold
SMILES: CCOc1cc(-c2nncn2C)ccc1Nc1ncc2cc(C)nc(N3CCC3(C)C)c2n1 [Compound 48, 8-(2,2-Dimethylazetidin-1-yl)-N-(2-ethoxy-4-(4-methyl-4H-1,2,4-triazol-3-yl)phenyl)-6-methylpyrido[3,4-d]pyrimidin-2-amine]

microsomal CLint at 1 μM [2]: 79 µL/min/mg
SMILES: COc1cc(-c2cnc(C)n2C)ccc1Nc1ncc2ccnc(NCC(C)(C)C)c2n1 [Compound 16, N^2-(4-(1,2-Dimethyl-1H-imidazol-5-yl)-2-methoxyphenyl)-N^8-neopentylpyrido[3,4-d]pyrimidine-2,8-diamine]
